Assay in all cases: HTRF cAMP assay in HEK293T
What all share (format): cell-based
(Time-resolved FRET reads energy transfer from a long-lived donor to a nearby acceptor.)

In assay [1] the target is T1, Olfr739 (Mus musculus, UniProt E9Q1P0).
T1 sequence (E9Q1P0 1-309): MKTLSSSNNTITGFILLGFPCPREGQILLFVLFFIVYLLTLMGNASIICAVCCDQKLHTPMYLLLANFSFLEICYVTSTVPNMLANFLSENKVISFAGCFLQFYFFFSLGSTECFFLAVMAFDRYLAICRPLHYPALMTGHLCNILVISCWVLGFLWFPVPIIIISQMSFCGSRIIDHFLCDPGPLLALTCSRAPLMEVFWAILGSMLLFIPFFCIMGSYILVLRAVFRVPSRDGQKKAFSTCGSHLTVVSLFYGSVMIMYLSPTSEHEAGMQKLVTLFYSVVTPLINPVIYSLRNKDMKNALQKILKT
The note with it: partial agonist; range printed for four receptors together.

The target of the next assay is T2, Olfr743 (Mus musculus, UniProt L7N1Y2).
T2 sequence (L7N1Y2 1-311): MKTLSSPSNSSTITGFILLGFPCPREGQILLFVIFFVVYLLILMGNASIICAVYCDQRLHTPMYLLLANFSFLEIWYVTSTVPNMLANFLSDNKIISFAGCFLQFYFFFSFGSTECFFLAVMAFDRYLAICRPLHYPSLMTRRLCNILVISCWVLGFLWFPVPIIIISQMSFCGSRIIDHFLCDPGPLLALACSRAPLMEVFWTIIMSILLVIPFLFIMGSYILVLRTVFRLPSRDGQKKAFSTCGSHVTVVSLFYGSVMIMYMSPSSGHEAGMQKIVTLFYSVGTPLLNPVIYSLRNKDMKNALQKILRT

A further assay deals with T3, Olfr748 (Mus musculus, UniProt E9Q9Z0).
T3 sequence (E9Q9Z0 1-307): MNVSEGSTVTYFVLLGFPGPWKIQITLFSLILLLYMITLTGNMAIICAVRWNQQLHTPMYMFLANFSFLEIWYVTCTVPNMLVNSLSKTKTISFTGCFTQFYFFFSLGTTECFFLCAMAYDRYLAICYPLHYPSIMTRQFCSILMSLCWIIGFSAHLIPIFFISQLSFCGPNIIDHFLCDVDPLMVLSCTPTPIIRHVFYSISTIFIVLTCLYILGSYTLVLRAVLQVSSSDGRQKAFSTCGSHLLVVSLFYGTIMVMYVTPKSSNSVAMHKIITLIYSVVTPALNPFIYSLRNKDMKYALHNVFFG

In assay [2] the target is T1, Olfr739.

On to `COc1ccc2ccccc2c1` [compound 35, 2-methoxynaphthalene], for which, on Olfr739 [1], the “% of the maximum indole response” value was 71-75%.

For `c1ccc2[nH]ccc2c1` [compound 37, indole], the figures for the EC50 on Olfr743, at Olfr748 and at Olfr739 [2] were 0.08 µM, 81 µM and 32 µM, respectively.

Source of the values: doi:10.1101/760033v2 (biorxiv, 2019).
